Activity calls are given as the source filed them. No cut-off for these calls is given here.
How the values were obtained:
[1] = biological target: T1, Bromodomain-containing protein 2 (Homo sapiens, UniProt P25440); assay: TR-FRET assay (BRD2 BD2)
Target sequence in this assay (P25440 whole entry): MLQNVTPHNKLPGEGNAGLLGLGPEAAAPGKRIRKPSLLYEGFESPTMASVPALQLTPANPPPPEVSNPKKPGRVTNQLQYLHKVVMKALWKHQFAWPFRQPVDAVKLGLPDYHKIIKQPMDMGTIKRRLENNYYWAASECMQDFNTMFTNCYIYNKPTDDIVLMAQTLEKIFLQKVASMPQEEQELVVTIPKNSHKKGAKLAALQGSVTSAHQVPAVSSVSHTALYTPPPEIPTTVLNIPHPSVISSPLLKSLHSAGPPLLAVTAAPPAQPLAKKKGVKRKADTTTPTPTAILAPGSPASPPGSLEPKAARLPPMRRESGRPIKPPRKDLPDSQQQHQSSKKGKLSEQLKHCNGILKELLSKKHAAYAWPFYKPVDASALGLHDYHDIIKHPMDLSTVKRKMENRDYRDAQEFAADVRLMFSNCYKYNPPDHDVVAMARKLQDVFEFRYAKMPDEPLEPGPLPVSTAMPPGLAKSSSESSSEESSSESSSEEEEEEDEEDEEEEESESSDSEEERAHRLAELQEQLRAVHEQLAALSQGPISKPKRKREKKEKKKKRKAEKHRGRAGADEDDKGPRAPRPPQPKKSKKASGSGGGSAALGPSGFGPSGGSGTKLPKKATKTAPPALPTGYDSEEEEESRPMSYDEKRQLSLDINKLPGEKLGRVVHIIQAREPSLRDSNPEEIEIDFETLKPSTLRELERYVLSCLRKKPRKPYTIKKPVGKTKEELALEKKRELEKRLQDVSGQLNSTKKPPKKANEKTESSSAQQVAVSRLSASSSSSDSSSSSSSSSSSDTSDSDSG

[2] = biological target: Muscarinic acetylcholine receptor M4 (Homo sapiens) (UniProt P08173); settings: Compound concentration 10.0 uM
[3] = biological target: Alpha-2B adrenergic receptor (Homo sapiens) (UniProt P18089); settings: Compound concentration 10.0 uM
[4] = biological target: Bromodomain-containing protein 1 (Homo sapiens, UniProt O95696); assay: BRD1 DiscoverX BROMOscan
[5] = biological target: T1, Bromodomain-containing protein 2; assay: BET mutant TR-FRET assay (BRD2 BD2)
[6] = biological target: T1, Bromodomain-containing protein 2; assay: BRD2 BD2 Bromoscan (DiscoverX)
Target sequence in this assay (P25440 whole entry): as above

[7] = biological target: SWI/SNF-related matrix-associated actin-dependent regulator of chromatin subfamily A member 4 (Homo sapiens, UniProt P51532); assay: SMARCA4 DiscoverX BROMOscan
Mu-type opioid receptor [8] = biological target: T2, Mu-type opioid receptor (Homo sapiens, UniProt P35372); settings: Compound concentration 10.0 uM
[9] = biological target: T3, Bromodomain testis-specific protein (Homo sapiens, UniProt Q58F21); assay: BET mutant TR-FRET assay (BRDT BD2)
Peregrin = Peregrin (Homo sapiens, UniProt P55201); assay: BRPF1 DiscoverX BROMOscan
[10] = biological target: GABA-A receptor; anion channel; assay: (§1) Cross screening panel; type: protein-complex assay
[11] = biological target: Voltage-gated potassium channel, IKs; KCNQ1(Kv7.1)/KCNE1(MinK) (Homo sapiens, UniProt P15382+P51787); assay: as §1; type: protein-complex assay
[12] = biological target: 5-hydroxytryptamine receptor 6 (Homo sapiens) (UniProt P50406); settings: Compound concentration 10.0 uM
[13] = biological target: T3, Bromodomain testis-specific protein; assay: TR-FRET assay (BRDT BD2)
[14] = biological target: T4, Bromodomain-containing protein 3 (Homo sapiens, UniProt Q15059); assay: TR-FRET assay (BRD3 BD1)
[15] = biological target: GABA-A receptor; anion channel (Rattus norvegicus) (UniProt O09028+P15431+P18506+P18508+P19969+P20236+P23574+P23576+P28471+P28473+P30191+P62813+P63079+P63138+Q91ZM7+Q9ES14); settings: Compound concentration 10.0 uM
[16] = biological target: T1, Bromodomain-containing protein 2; assay: BRD2(1) DiscoverX BROMOscan
Target sequence in this assay (P25440 whole entry): as above

[17] = biological target: Transcription intermediary factor 1-alpha (Homo sapiens, UniProt O15164); assay: TRIM24(BROMO.) DiscoverX BROMOscan
[18] = biological target: 5-hydroxytryptamine receptor 1D (Homo sapiens, UniProt P28221); settings: Compound concentration 10.0 uM
[19] = biological target: T3, Bromodomain testis-specific protein; assay: BRDT BD1 Bromoscan (DiscoverX)
[20] = biological target: T4, Bromodomain-containing protein 3; assay: BET mutant TR-FRET assay (BRD3 BD2)
[21] = biological target: E3 ubiquitin-protein ligase TRIM33 (Homo sapiens, UniProt Q9UPN9); assay: TRIM33(PHD,Bromo.) DiscoverX BROMOscan
[22] = biological target: ATPase family AAA domain-containing protein 2B (Homo sapiens, UniProt Q9ULI0); assay: ATAD2B DiscoverX BROMOscan
[23] = biological target: Beta-2 adrenergic receptor (Homo sapiens, UniProt P07550); assay: as §1
[24] = biological target: Muscarinic acetylcholine receptor M1 (Homo sapiens, UniProt P11229); assay: as §1
Histamine H1 receptor = Histamine H1 receptor (Homo sapiens, UniProt P35367); assay: as §1
[25] = biological target: Acetylcholine receptor subunit alpha (Homo sapiens, UniProt P02708); assay: as §1
[26] = biological target: Amine oxidase [flavin-containing] A (Homo sapiens, UniProt P21397); assay: as §1
Aurora kinase B = Aurora kinase B (Homo sapiens, UniProt Q96GD4); assay: as §1
Adenosine receptor A2a = Adenosine receptor A2a (Homo sapiens, UniProt P29274); assay: as §1
Substance-P receptor = Substance-P receptor (Homo sapiens, UniProt P25103); assay: as §1
Mu-type opioid receptor [27] = biological target: T2, Mu-type opioid receptor; assay: as §1
[28] = biological target: Alpha-1B adrenergic receptor (Homo sapiens, UniProt P35368); assay: as §1
[29] = biological target: Kappa-type opioid receptor (Homo sapiens, UniProt P41145); assay: as §1
[30] = biological target: Sodium-dependent serotonin transporter (Homo sapiens, UniProt P31645); assay: as §1
[31] = biological target: Voltage-dependent L-type calcium channel subunit alpha-1C (Homo sapiens, UniProt Q13936); assay: as §1
[32] = biological target: Potassium voltage-gated channel subfamily A member 5 (Homo sapiens, UniProt P22460); assay: as §1
[33] = biological target: Solute carrier organic anion transporter family member 1B1 (Homo sapiens, UniProt Q9Y6L6); assay: as §1
[34] = biological target: Prostaglandin G/H synthase 2 (Homo sapiens, UniProt P35354); assay: as §1
[35] = biological target: Tyrosine-protein kinase Lck (Homo sapiens, UniProt P06239); assay: as §1
[36] = biological target: Glutamate receptor ionotropic, NMDA 2B (Homo sapiens, UniProt Q13224); assay: as §1
[37] = biological target: 5-hydroxytryptamine receptor 1B (Homo sapiens, UniProt P28222); assay: as §1
[38] = biological target: Alpha-2C adrenergic receptor (Homo sapiens, UniProt P18825); assay: as §1
[39] = biological target: Sodium channel protein type 5 subunit alpha (Homo sapiens, UniProt Q14524); assay: as §1
[40] = biological target: 5-hydroxytryptamine receptor 2A (Homo sapiens, UniProt P28223); assay: as §1
D(2) dopamine receptor = D(2) dopamine receptor (Homo sapiens, UniProt P14416); assay: as §1
[41] = biological target: 3',5'-cyclic-AMP phosphodiesterase 4B (Homo sapiens, UniProt Q07343); assay: as §1
Vasopressin V1a receptor = Vasopressin V1a receptor (Homo sapiens, UniProt P37288); assay: as §1
D(1A) dopamine receptor = D(1A) dopamine receptor (Homo sapiens, UniProt P21728); assay: as §1
[42] = biological target: Muscarinic acetylcholine receptor M2 (Homo sapiens, UniProt P08172); assay: as §1
[43] = biological target: Phosphatidylinositol 4,5-bisphosphate 3-kinase catalytic subunit gamma isoform (Homo sapiens, UniProt P48736); assay: as §1
[44] = biological target: 5-hydroxytryptamine receptor 3A (Homo sapiens, UniProt P46098); assay: as §1
Acetylcholinesterase = Acetylcholinesterase (Homo sapiens, UniProt P22303); assay: as §1
[45] = biological target: 5-hydroxytryptamine receptor 2C (Homo sapiens, UniProt P28335); assay: as §1
[46] = biological target: Nuclear receptor subfamily 1 group I member 2 (Homo sapiens, UniProt O75469); assay: as §1
[47] = biological target: Aryl hydrocarbon receptor (Homo sapiens, UniProt P35869); assay: as §1
[48] = biological target: cGMP-inhibited 3',5'-cyclic phosphodiesterase 3A (Homo sapiens, UniProt Q14432); assay: as §1
Cannabinoid receptor 2 = Cannabinoid receptor 2 (Homo sapiens, UniProt P34972); assay: as §1

Chain of D(2) dopamine receptor (P14416 whole entry): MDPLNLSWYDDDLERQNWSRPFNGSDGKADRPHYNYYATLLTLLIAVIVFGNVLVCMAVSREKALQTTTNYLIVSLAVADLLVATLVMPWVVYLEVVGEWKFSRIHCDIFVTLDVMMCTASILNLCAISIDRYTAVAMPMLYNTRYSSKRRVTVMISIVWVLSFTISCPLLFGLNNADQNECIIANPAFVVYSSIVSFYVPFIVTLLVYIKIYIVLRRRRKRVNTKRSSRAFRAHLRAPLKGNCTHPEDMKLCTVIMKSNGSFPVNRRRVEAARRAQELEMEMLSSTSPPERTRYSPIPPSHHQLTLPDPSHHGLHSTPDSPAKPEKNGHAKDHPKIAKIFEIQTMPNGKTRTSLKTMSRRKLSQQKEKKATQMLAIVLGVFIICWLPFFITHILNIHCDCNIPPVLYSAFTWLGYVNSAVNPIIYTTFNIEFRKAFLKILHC
Chain of 5-hydroxytryptamine receptor 3A (P46098 whole entry): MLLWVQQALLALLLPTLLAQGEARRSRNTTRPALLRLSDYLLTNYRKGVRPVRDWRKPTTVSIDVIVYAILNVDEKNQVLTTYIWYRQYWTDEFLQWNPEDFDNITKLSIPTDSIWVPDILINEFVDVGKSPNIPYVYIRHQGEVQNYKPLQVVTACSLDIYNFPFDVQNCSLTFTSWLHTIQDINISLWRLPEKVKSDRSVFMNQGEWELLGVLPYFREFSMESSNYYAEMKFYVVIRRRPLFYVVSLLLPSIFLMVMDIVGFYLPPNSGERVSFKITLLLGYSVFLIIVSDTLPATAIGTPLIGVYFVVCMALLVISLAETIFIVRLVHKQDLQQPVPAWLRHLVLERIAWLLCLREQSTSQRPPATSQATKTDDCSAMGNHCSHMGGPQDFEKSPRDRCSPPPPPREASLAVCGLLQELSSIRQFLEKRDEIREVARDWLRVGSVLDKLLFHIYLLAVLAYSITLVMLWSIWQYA
Chain of Acetylcholine receptor subunit alpha (P02708 whole entry): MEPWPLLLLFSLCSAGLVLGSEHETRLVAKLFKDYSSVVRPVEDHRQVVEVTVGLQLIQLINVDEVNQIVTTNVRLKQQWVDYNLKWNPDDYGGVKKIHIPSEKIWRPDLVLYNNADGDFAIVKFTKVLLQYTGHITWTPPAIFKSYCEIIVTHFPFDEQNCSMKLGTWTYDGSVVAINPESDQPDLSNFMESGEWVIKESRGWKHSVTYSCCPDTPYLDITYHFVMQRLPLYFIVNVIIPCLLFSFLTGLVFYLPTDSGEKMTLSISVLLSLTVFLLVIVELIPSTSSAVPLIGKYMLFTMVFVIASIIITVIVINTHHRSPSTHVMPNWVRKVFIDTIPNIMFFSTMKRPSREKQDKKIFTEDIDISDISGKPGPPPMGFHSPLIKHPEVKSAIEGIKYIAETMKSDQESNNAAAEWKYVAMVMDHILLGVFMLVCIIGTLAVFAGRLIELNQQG
Chain of Muscarinic acetylcholine receptor M1 (P11229 whole entry): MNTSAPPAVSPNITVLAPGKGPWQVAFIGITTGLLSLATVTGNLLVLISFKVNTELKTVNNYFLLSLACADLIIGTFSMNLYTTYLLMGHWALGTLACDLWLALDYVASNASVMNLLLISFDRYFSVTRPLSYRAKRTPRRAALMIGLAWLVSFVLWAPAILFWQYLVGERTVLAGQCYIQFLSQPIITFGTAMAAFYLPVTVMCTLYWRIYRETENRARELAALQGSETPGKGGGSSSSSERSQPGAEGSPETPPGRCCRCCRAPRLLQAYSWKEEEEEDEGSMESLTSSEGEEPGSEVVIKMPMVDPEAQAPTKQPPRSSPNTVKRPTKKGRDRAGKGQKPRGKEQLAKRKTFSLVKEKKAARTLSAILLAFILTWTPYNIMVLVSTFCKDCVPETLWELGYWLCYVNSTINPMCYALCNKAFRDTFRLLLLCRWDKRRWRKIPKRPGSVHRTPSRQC
Chain of 5-hydroxytryptamine receptor 1B (P28222 whole entry): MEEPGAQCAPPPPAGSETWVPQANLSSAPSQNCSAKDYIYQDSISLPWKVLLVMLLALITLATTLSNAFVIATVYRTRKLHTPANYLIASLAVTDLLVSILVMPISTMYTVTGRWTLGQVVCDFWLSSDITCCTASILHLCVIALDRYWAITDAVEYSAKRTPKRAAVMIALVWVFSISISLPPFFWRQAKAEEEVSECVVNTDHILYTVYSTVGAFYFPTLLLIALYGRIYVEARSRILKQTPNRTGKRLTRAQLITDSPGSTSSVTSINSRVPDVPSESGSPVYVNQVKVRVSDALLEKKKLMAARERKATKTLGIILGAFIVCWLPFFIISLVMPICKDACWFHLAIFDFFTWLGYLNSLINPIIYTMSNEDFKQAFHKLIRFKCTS
T2 sequence (P35372 whole entry): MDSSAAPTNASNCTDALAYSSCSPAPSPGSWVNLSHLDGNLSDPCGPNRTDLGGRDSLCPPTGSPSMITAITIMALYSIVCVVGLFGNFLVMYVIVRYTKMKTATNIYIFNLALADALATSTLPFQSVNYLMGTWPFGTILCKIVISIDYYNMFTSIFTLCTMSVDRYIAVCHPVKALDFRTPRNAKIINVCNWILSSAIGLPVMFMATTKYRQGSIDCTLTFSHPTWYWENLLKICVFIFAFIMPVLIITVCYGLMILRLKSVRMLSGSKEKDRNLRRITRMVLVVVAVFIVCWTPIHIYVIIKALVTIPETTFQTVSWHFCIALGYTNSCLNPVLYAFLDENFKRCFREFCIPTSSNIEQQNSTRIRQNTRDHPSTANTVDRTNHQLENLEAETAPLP
Chain of Beta-2 adrenergic receptor (P07550 whole entry): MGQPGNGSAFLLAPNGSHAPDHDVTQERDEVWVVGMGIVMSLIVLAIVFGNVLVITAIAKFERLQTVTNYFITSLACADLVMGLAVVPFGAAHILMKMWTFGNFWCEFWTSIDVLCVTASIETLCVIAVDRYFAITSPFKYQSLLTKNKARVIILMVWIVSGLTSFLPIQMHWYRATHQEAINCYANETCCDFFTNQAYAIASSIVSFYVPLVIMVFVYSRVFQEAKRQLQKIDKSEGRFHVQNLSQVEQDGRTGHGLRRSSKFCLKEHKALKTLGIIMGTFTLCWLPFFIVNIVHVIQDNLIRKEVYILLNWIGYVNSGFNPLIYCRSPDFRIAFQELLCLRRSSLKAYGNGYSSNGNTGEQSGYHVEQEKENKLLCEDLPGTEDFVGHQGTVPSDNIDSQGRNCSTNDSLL
Chain of Muscarinic acetylcholine receptor M2 (P08172 whole entry, canonical isoform): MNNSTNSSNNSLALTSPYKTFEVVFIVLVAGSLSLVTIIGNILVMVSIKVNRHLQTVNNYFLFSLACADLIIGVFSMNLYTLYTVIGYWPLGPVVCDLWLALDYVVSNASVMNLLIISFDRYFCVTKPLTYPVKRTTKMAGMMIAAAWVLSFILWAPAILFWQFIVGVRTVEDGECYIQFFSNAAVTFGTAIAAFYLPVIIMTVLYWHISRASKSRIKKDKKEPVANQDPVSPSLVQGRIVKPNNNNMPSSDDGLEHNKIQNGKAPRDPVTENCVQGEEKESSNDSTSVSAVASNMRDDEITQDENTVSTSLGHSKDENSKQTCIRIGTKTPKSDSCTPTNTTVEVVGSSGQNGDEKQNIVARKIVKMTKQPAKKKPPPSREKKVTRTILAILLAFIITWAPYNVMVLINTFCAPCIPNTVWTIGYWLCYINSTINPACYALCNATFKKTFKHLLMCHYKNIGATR
Chain of 5-hydroxytryptamine receptor 2A (P28223 whole entry): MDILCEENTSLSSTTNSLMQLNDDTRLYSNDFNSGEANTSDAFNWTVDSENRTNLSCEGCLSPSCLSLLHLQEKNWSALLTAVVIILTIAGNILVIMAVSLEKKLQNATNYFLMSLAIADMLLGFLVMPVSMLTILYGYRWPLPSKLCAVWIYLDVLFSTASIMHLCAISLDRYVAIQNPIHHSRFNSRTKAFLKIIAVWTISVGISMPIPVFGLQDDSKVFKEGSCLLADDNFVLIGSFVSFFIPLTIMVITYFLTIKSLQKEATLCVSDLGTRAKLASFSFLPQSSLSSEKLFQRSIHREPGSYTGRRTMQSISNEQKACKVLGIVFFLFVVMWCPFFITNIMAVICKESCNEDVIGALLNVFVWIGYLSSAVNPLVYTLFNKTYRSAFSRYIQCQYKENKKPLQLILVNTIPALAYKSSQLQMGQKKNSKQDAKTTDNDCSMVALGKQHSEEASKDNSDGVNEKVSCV

## CC(=O)Nc1c(F)cc(C(=O)N[C@H]2CC[C@H](O)CC2)cc1O[C@@H](C)c1ccccc1 [GSK046]
[1]
  IC50: 0.264 µM (active)
[2]
  inhibition: -0.27%
[3]
  inhibition: 3.38%
[4]
  Kd: 30 µM
[5]
  pIC50: 6.6
[6]
  Kd: 0.035 µM (active)
[7]
  Kd: 30 µM
Mu-type opioid receptor [8]
  inhibition: 20.4%
[9]
  pIC50: 6.7
Peregrin
  Kd: 30 µM
[10]
  pEC50: < 4
  pIC50: < 4
[11]
  IC50: > 25.1 µM
[12]
  inhibition: 11.4%
[13]
  IC50: 0.214 µM (active)
[14]
  IC50: 36.3 µM (not active)
[15]
  inhibition: 15.3%
[16]
  Kd: 1.62 µM
[17]
  Kd: 30 µM
[18]
  inhibition: 84.2%
[19]
  Kd: 2.45 µM (not active)
[20]
  pIC50: 7
[21]
  Kd: 30 µM
[22]
  Kd: 30 µM
[23]
  EC50: > 100 µM
  IC50: > 100 µM
[24]
  EC50: > 50.1 µM
  IC50: > 50.1 µM
Histamine H1 receptor
  IC50: > 25.1 µM
[25]
  EC50: > 50.1 µM
  IC50: 25.1 µM
[26]
  IC50: > 100 µM
Aurora kinase B
  IC50: > 31.6 µM
Adenosine receptor A2a
  EC50: 31.6 µM
Substance-P receptor
  IC50: > 25.1 µM
Mu-type opioid receptor [27]
  EC50: > 100 µM
[28]
  Ki: > 25.1 µM
[29]
  EC50: > 100 µM
[30]
  IC50: > 100 µM
[31]
  IC50: 100 µM
[32]
  IC50: > 50.1 µM
[33]
  IC50: > 50.1 µM
[34]
  IC50: > 100 µM
[35]
  IC50: > 31.6 µM
[36]
  IC50: > 50.1 µM
[37]
  EC50: > 100 µM
  IC50: > 100 µM
[38]
  EC50: > 100 µM
[39]
  IC50: > 100 µM
[40]
  EC50: > 25.1 µM
D(2) dopamine receptor
  EC50: > 100 µM
  Ki: > 100 µM
[41]
  IC50: > 100 µM
Vasopressin V1a receptor
  IC50: > 39.8 µM
D(1A) dopamine receptor
  IC50: > 100 µM
[42]
  EC50: > 50.1 µM
  IC50: > 50.1 µM
[43]
  IC50: > 31.6 µM
[44]
  EC50: > 50.1 µM
  IC50: > 50.1 µM
Acetylcholinesterase
  IC50: 7.94 µM
[45]
  EC50: > 25.1 µM
[46]
  EC50: > 50.1 µM
[47]
  EC50: > 100 µM
[48]
  IC50: > 100 µM
Cannabinoid receptor 2
  EC50: > 100 µM

Reference: ChEMBL document CHEMBL4630908 (2021)
